This is an account of results in patent US10301317B2, “Inhibitors of ERK and methods of use” (Kura Oncology, Inc., priority 2013, dated 2019).

Structures are written as SMILES.

Usually IC50 stands for the midpoint of a concentration-inhibition curve.

For the assay, the system named is phospho-p90 RSK (RSK1 Thr359/Ser363) in A375 (Braf V600E) cells. The assay can be described thus: Phospho-p90 RSK ELISA using A375 (Braf V600E) cells. Type of assay: cell-based. To be noted: Homo sapiens, A-375, 2 hours compound treatment, read-out: Cellular Phospho-p90RSK IC50. On the procedure:
In preparation for the assay, an ELISA plate with the pre-coated goat anti-mouse antibody (Thermo Scientific) was treated with a mouse anti-human RSK1 antibody (monoclonal, Invitrogen) at 1:800 dilution (150 ng/well) in PBS, and the plate was placed on a plate shaker at 4° C. overnight. […] After two […] of the compound treatment, the supernatant was removed from the cell plate, and cells were lysed in 100 μl per well of cell lysis buffer (Cell Signaling Technologies) containing phosphatase and protease inhibitors (Cell Signaling Technologies) on a plate shaker at 4° C. for 20 minutes. The ELISA plate was washed four times with ELISA wash buffer (Thermo Scientific) prior to addition of 100 μL cell lysate. The lysate was incubated on the ELISA plate with gentle shaking at room temperature for 2 hours. The contents of the wells were removed, and the ELISA plate was washed four times with wash buffer, and incubated with 100 μL per well of anti-phospho-RSK1 (Thr359/Ser363) rabbit monoclonal antibody (Millipore) at dilution of 1:1000 in StartingBlock buffer (Thermo Scientific) on a plate shaker at room temperature for 1 hour. The contents of the wells were removed, the ELISA plate was washed four times with wash buffer, and was incubated with 100 μL per well of goat anti-rabbit HRP (Thermo Scientific) at dilution of 1:3000 in StartingBlock buffer (Thermo Scientific) on a plate shaker at room temperature for 1 hour. The contents of the wells were removed, the ELISA plate was washed four times with wash buffer, and then incubated with 100 μL per well of TMB substrate solution (Thermo Scientific) on a plate shaker at room temperature for 20 minutes. Finally, 100 μL of TMB stop solution (Thermo Scientific) was added to each well and the absorbance is measured at 450 nm on a Tecan plate reader.
For orientation: In an ELISA, binding on a coated surface is turned into a signal by an enzyme label.
`Cc1cc(-c2n[nH]c3cc4c(cc23)CN([C@@H]2CCCN(CC(O)C(C)(C)C)C2)C(=O)N4)ccn1` (stereo partly drawn) [Example 236]: the IC50 is above 1000 nM. As for `Cc1cc(-c2n[nH]c3cc4c(cc23)CN([C@@H]2CCCN(c3cccc(C)n3)C2)C(=O)N4)ccn1` [Example 238], the concentration for half-maximal inhibition (IC50) was at most 250 nM. Consider `Cc1cc(-c2n[nH]c3cc4c(cc23)CN(Cc2nc(C)cs2)C(=O)N4)ccn1` [Example 246], for which the half-maximal inhibitory concentration (IC50) was at most 250 nM.

For `Cc1cc(-c2n[nH]c3cc4c(cc23)CN([C@@H]2CCCN(C(C)C)C2)C(=O)N4)ccn1` [Example 247], the concentration for half-maximal inhibition (IC50) was above 1000 nM. Take `Cc1cc(-c2n[nH]c3cc4c(cc23)CN([C@@H]2CCN(c3cccc(Cl)c3)C2)C(=O)N4)ccn1` [Example 249]: the IC50 is at most 250 nM. On to `Cc1cc(-c2n[nH]c3cc4c(cc23)CN(CC2CCOCC2)C(=O)N4)cc(C)n1` [Example 250], for which the IC50 is at most 250 nM. For `Cc1cc(-c2n[nH]c3cc4c(cc23)CN(CC2CCC2)C(=O)N4)ccn1` [Example 253], the IC50 is at most 250 nM.

In the case of `Cc1cc(-c2n[nH]c3cc4c(cc23)CN([C@@H]2CCN(C)C2)C(=O)N4)ccn1` [Example 255], the IC50 is above 1000 nM.

For `CCN1CC[C@@H](N2Cc3cc4c(-c5ccnc(C)c5)n[nH]c4cc3NC2=O)C1` [Example 256], the IC50 was above 1000 nM. In the case of `Cc1cc(-c2n[nH]c3cc4c(cc23)CN(CC2CC2)C(=O)N4)ccn1` [Example 258], the IC50 is at most 250 nM. `Cn1cc(-c2n[nH]c3cc4c(cc23)CN([C@@H]2CCN(CC(F)(F)F)C2)C(=O)N4)cn1` [Example 259]: the IC50 was at most 250 nM. In the case of `CN(C)CCN1CCN(c2n[nH]c3cc4c(cc23)CN(Cc2ccc(F)c(Cl)c2)C(=O)N4)CC1` [Example 260], the IC50 is above 1000 nM. Take `Cn1nccc1-c1n[nH]c2cc3c(cc12)CN([C@@H]1CCCN(Cc2ccccc2)C1)C(=O)N3` [Example 261]: the IC50 was at most 250 nM.

On to `Cc1cc(-c2n[nH]c3cc4c(cc23)CN(C(C)C2CCOCC2)C(=O)N4)ccn1` (stereo not drawn) [Example 262], for which the IC50 is at most 250 nM. Next, `Cc1cc(-c2n[nH]c3cc4c(cc23)CN([C@@H]2CN(Cc3ccccc3)CC(F)(F)C2)C(=O)N4)ccn1` [Example 263]: above 1000 nM; `Cn1nccc1-c1n[nH]c2cc3c(cc12)CN([C@@H]1CCN(CC(F)(F)F)C1)C(=O)N3` [Example 265]: above 1000 nM; `Cc1cc(-c2n[nH]c3cc4[nH]c(=O)c(CC5CCCCC5)cc4cc23)ccn1` [Example 266]: at most 250 nM. Next, `Cc1cc(-c2n[nH]c3cc4c(cc23)CN([C@@H]2CCN(C(C)C)C2)C(=O)N4)ccn1` [Example 268]: above 1000 nM; `Cc1ccc(-c2n[nH]c3cc4c(cc23)CN([C@@H]2CCN(CC(F)(F)F)C2)C(=O)N4)cn1` [Example 274]: at most 250 nM; `COc1ncc(-c2n[nH]c3cc4c(cc23)CN([C@@H]2CCN(CC(F)(F)F)C2)C(=O)N4)cn1` [Example 276]: at most 250 nM. With `COc1ccc(-c2n[nH]c3cc4c(cc23)CN([C@@H]2CCN(CC(F)(F)F)C2)C(=O)N4)cn1` [Example 277], the half-inhibitory concentration (IC50) was at most 250 nM.

Regarding `Cc1cc(-c2n[nH]c3cc4c(cc23)CN(CCC2CC2)C(=O)N4)ccn1` [Example 283], the IC50 was above 1000 nM. For `Cc1cc(-c2n[nH]c3cc4c(cc23)CN(C(C)c2nc(C)c(C)s2)C(=O)N4)ccn1` (stereo not drawn) [Example 286], the IC50 is at most 250 nM. Take `Cc1cc(-c2n[nH]c3cc4[nH]c(=O)c([C@@H](C)c5ccc(F)cc5)cc4cc23)ccn1` [Example 287]: the IC50 lay within 250 to 1000 nM. As to `Cc1cc(-c2n[nH]c3cc4[nH]c(=O)c(C5CCCC5)cc4cc23)ccn1` [Example 289], the IC50 is 250 to 1000 nM. Turning to `Cc1cc(-c2n[nH]c3cc4c(cc23)CN([C@@H]2CCCN(Cc3ccc(F)s3)C2)C(=O)N4)ccn1` [Example 290], the IC50 was at most 250 nM.

For the compound `Cc1cc(-c2n[nH]c3cc4c(cc23)CN(C(C)C2CCCC2)C(=O)N4)ccn1` (stereo not drawn) [Example 294], the IC50 was at most 250 nM.
